Two molecules from ChEMBL document CHEMBL1144133, “Novel highly oxygenated bisabolane sesquiterpenes from Cremanthodium discoideum” (1999) can be followed below.

Common to all, as to format: functional
For one assay, the system named is Bacillus subtilis. The assay can be described thus: Antibacterial activity against Bacillus subtilis MCCB 26501 at 100 ug/ml after 24 hrs by paper-disk method.
For another assay, the system named is Bacillus. The assay can be described thus: Antibacterial activity against Bacillus acidilatici MCCB 44102 at 100 ug/ml after 24 hrs by paper-disk method.
For the next assay, the system named is Pseudomonas aeruginosa. The assay can be described thus: Antibacterial activity against Bacillus aeruginosus MCCB 10104 at 100 ug/ml after 24 hrs by paper-disk method.

Bounds are passed on as bounds.

`O=C(N[C@H](CO)[C@H](O)c1ccc([N+](=O)[O-])cc1)C(Cl)Cl` [CHLORAMPHENICOL]: the Activity in the assay on Bacillus subtilis, with Bacillus and in the assay on Pseudomonas aeruginosa was 13 mm each time.

As for `C=C([C@@H](C[C@H](O)C(C)(C)OC)OC(=O)/C(C)=C\C)[C@@H]1C[C@@H](Cl)[C@](C)(O)[C@H](OC(C)=O)[C@@H]1OC(=O)/C(C)=C\C`, the Activity is recorded as 13 mm with Bacillus subtilis, 10 mm in the assay on Bacillus and <9 mm with Pseudomonas aeruginosa.
